According to patent US9527807B2, “Sulfonamide derivative and use thereof” (Takeda Pharmaceutical Company Limited, priority 2011, dated 2016):
Structures can show the parent of a compound that is named as a salt.

These molecules were tested against T1, AMPA receptor (human GluR1 flip/stargazin expressed in CHO-K1 cells) (Homo sapiens, UniProt P42261) (assay: AMPA receptor function enhancing activity using calcium influx as index). Details: change in fluorescence level in 3 min, 100% = 3 mM glutamic acid + 300 μM cyclothiazide, 0% = 3 mM glutamic acid only.
T1 construct: expressed in transfected cells; host or cells: CHO-K1
Type: cell-based
Description: Human GluR1 flip cDNA was amplified by PCR using forward primer […] (SEQ ID NO: 1) and reverse primer […] (SEQ ID NO: 2) artificially synthesized using human brain-derived cDNA (BD Bio science) as a template. The amplified product was digested with restriction enzymes EcoRI, NotI (TAKARA SHUZO CO. LTD.), and incorporated into the same site of pcDNA3.1(+) (Invitrogen) to construct pcDNA3.1(+)/human GluR1 flip gene. Human stargazin cDNA was amplified by PCR using forward primer […] (SEQ ID NO: 3) and reverse primer. […] (SEQ ID NO: 4) artificially synthesized using human hippocampus cDNA as a template. The amplified product was digested with restriction enzymes XhoI, BamHI (TAKARA SHUZO CO. LTD.), and incorporated into the same site of pcDNA3.1(−) (Invitrogen) to construct pcDNA3.1 Zeo(−)/human stargazin gene.
(2) Construction of GluR1 Flip/Stargazin Expressing Cell
CHO-K1 cells passaged in a culture medium (Ham's F12 medium (Invitrogen) added with 10% inactivated fetal bovine serum (Morgate) and penicillin, streptomycin (Invitrogen)) were detached with 0.05% trypsin, 0.53 mM EDTA (Invitrogen) diluted with D-PBS(−). The detached cells were suspended in a culture medium, and recovered by a centrifugation operation at 1,000 rpm. The recovered cells were suspended again in D-PBS(−), and added to a 0.4 cm electroporation cuvette (BioRad). pcDNA3.1(+)/human GluR1 flip gene (5 μg) and pcDNA3.1 Zeo(−)/human stargazin gene (15 μg) were added, and the mixture was introduced into CHO-K1 cells using Gene Pulser II (BioRad) under the conditions of 950 μFd, […]. The introduced cells were cultured overnight in a culture medium and, the next day, plated in a 96 well plate at 250 cells/well using a selection medium (culture medium added with Zeocin (Invitrogen) to 250 μg/mL). Clones showing drug resistance were selected, and GluR1 flip/stargazin expressing clones were selected by an assay method using calcium influx as an index as shown below.
(3) Measurement Method of AMPA Receptor Function Enhancing Activity of Compound Using Calcium Influx as Index
CHO-K1/GluR1 flip/stargazin expressing cells were plated on a 384 well black transparent bottom plate (FMAT4307723) at 0.5×10^4 cells/well, and cultured in a 37° C., CO2 incubator (SANYO Electric Co., Ltd.) for 2 days. The medium in the cell plate was removed, and a calcium indicator (Calcium 4 Assay Kit, Molecular. Devices) containing 1.25 mM probenecid (Invitrogen) was added at 25 μL/well and the well was left standing in 37° C., CO2 incubator for 1 hr. The cell plate was set in FLITRtetra (Molecular Devices), a mixture (12.5 μL) of 9 mM glutamic acid diluted with assay buffer B (HBSS (Invitrogen), 0.1% BSA, 10 mM HEPES) and a test compound was added, and the amount of change in fluorescence level in 3 min was measured. In the definition here, the amount of change in fluorescence level of well added with glutamic acid at final concentration 3 mM and 300 μM cyclothiazide (TOCRIS) is 100%, the amount of change in fluorescence level of well added only with glutamic acid at final concentration 3 mM is 0%, and the compound activity was calculated according to the following formula. activity (%)=(X−C)/(T−C)×100 T: amount of change in fluorescence level of well added with glutamic acid at final concentration 3 mM and 300 μM cyclothiazide C: amount of change in fluorescence level of well added only with glutamic acid at final concentration 3 mM X: amount of change in fluorescence level of well added with to test compound

T1 sequence (P42261 19-906 isoform P42261-2 limits assumed): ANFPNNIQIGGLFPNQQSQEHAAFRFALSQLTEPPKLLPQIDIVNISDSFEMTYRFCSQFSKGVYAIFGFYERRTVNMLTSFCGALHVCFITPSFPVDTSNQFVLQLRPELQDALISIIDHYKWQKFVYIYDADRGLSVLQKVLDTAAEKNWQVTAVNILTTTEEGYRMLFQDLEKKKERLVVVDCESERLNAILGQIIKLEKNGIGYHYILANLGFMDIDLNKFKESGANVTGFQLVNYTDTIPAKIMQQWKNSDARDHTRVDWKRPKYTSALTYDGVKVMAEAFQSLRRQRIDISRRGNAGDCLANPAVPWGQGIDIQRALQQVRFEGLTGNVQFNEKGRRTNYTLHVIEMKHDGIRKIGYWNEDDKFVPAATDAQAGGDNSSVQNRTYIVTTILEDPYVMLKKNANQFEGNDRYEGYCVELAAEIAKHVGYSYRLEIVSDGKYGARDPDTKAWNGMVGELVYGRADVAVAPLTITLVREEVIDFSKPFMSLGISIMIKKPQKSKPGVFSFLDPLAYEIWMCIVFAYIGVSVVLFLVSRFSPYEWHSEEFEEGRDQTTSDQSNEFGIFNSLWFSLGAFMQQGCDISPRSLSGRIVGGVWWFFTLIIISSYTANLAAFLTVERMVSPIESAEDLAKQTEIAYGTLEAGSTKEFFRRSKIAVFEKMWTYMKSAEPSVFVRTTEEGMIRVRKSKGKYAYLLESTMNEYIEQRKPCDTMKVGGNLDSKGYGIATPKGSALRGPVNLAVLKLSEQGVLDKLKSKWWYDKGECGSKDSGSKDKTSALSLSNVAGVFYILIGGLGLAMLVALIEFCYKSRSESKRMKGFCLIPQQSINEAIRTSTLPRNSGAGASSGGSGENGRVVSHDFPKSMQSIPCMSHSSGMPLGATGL
T1 sequence (Q9Y698 whole entry partner): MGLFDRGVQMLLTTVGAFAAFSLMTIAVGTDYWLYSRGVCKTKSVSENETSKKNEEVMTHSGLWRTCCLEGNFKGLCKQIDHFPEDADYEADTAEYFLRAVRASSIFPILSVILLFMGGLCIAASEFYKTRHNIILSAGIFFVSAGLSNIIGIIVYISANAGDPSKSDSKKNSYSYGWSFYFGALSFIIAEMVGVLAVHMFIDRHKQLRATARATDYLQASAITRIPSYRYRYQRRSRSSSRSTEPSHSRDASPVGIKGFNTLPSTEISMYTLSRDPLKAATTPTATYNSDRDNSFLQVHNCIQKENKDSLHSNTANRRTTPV

Row | Structure (SMILES) | activity (%)
1 | CCS(=O)(=O)N[C@H]1CCN(C(C)=O)C[C@@H]1COc1ccc(OC(F)F)cc1 (relative stereo) [Example 1, trans-N-[1-acetyl-3-{[4-(difluoromethoxy)phenoxy]methyl}piperidin-4-yl]ethanesulfonamide] | 46%
2 | Cc1cnc(-c2ccc(OC[C@H]3OCCC[C@@H]3NS(=O)(=O)C3CC3)cc2)s1 (racemic) [Example 192, 1,5-anhydro-4-[(cyclopropylsulfonyl)amino]-2,3,4-trideoxy-6-O-[4-(5-methyl-1,3-thiazol-2-yl)phenyl]-DL-erythro-hexitol] | 74%
3 | CS(=O)(=O)N[C@H]1CCOC[C@@H]1COc1ccc(-c2ccc(Cl)cn2)c(F)c1 (racemic) [Example 244, N-[(3RS,4SR)-3-{[4-(5-chloropyridin-2-yl)-3-fluorophenoxy]methyl}tetrahydro-2H-pyran-4-yl]methanesulfonamide] | 96%
4 | CCS(=O)(=O)N[C@H]1CCC(F)(F)C[C@@H]1COc1ccc(-c2cccn(C)c2=O)cc1 [Example 267, N-[(1S,2S)-4,4-difluoro-2-{[4-(1-methyl-2-oxo-1,2-dihydropyridin-3-yl)phenoxy]methyl}cyclohexyl]ethanesulfonamide] | 93%
5 | CCS(=O)(=O)N[C@H]1CCOC[C@@H]1COc1ccc(-n2cnc(C)c2)cc1 (relative stereo) [Example 139, trans-N-[3-{[4-(4-methyl-1H-imidazol-1-yl)phenoxy]methyl}tetrahydro-2H-pyran-4-yl]ethanesulfonamide] | 97%
6 | CCS(=O)(=O)N[C@H]1CCOC[C@@H]1COc1ccc(-c2ccc(C(F)(F)F)cn2)cc1 (racemic) [Example 351, N-[(3RS,4SR)-3-({4-[5-(trifluoromethyl)pyridin-2-yl]phenoxy}methyl)tetrahydro-2H-pyran-4-yl]ethanesulfonamide rac] | 70%
7 | CCS(=O)(=O)N[C@H]1CCC(F)(F)C[C@@H]1COc1ccc(N2CCCC2=O)cc1 [Example 482, N-[(1S,2S)-4,4-difluoro-2-{[4-(2-oxopyrrolidin-1-yl)phenoxy]methyl}cyclohexyl] ethanesulfonamide] | 99%
8 | CCS(=O)(=O)N[C@H]1CCOC[C@@H]1COc1ccc(-c2cccnc2)cc1 (relative stereo) [Example 138, trans-N-{3-[(4-pyridin-3-ylphenoxy)methyl]tetrahydro-2H-pyran-4-yl}ethanesulfonamide] | 95%
9 | CCS(=O)(=O)N[C@H]1CCOC[C@@H]1COc1ccc(-n2cc(Cl)cn2)c(F)c1 (racemic) [Example 489, N-[(3RS,4SR)-3-{[4-(4-chloro-1H-pyrazol-1-yl)-3-fluorophenoxy]methyl}tetrahydro-2H-pyran-4-yl]ethanesulfonamide] | 99%
10 | CCS(=O)(=O)N[C@H]1CCC(=O)C[C@@H]1COc1ccc(C(C)C)cc1 (relative stereo) [Example 39, trans-N-[2-{[4-(1-methylethyl)phenoxy]methyl}-4-oxocyclohexyl]ethanesulfonamide] | 81%

Further lines, results first:

Row | activity (%) | Structure (SMILES)
11 | 74% | CS(=O)(=O)N[C@H]1COCC[C@@H]1COc1ccc(-n2cc(Cl)cn2)cc1 [Example 206, N-[(3R,4S)-4-{[4-(4-chloro-1H-pyrazol-1-yl)phenoxy]methyl}tetrahydro-2H-pyran-3-yl]methanesulfonamide]
12 | 104% | O=S(=O)(N[C@H]1COCC[C@@H]1COc1ccc(-c2ccc(F)cn2)cc1F)C1CC1 [Example 264, N-[(3R,4S)-4-{[2-fluoro-4-(5-fluoropyridin-2-yl)phenoxy]methyl}tetrahydro-2H-pyran-3-yl]cyclopropanesulfonamide]
13 | 88% | CCS(=O)(=O)N[C@H]1COCC[C@@H]1COc1ccc(C(C)C)cc1 (single isomer, unassigned) [Example 110, trans-N-[4-{[4-(1-methylethyl)phenoxy]methyl}tetrahydro-2H-pyran-3-yl]ethanesulfonamide]
14 | 88% | CCS(=O)(=O)N[C@H]1CCC[C@@H]1COc1ccc(C(C)C)cc1 (relative stereo) [Example 15, trans-N-[2-{[4-(1-methylethyl)phenoxy]methyl}cyclopentyl]ethanesulfonamide]
15 | 87% | Cc1cc(-c2ccc(OC[C@H]3COCC[C@@H]3NS(C)(=O)=O)cc2F)no1 [Example 247, N-[(3R,4S)-3-{[3-fluoro-4-(5-methylisoxazol-3-yl)phenoxy]methyl}tetrahydro-2H-pyran-4-yl]methanesulfonamide]
16 | 80% | CCS(=O)(=O)N[C@H]1CCCC[C@@H]1COc1ccc(-n2cccn2)cc1 (relative stereo) [Example 60, trans-N-[2-{[4-(1H-pyrazol-1-yl)phenoxy]methyl}cyclohexyl]ethane-sulfonamide]
17 | 59% | CS(=O)(=O)N[C@@H]1CCOC[C@H]1COc1ccc(-c2ncc(Cl)cc2F)cc1 (single isomer, unassigned) [Example 382, N-[(3S,4R)-3-{[4-(5-chloro-3-fluoropyridin-2-yl)phenoxy]methyl}tetrahydro-2H-pyran-4-yl]methanesulfonamide or N-[(3R,4S)-3-{[4-(5-chloro-3-fluoropyridin-2-yl)phenoxy]methyl}tetrahydro-2H-pyran-4-yl]methanesulfonamide]
18 | 66% | Cc1nc(-c2ccc(OC[C@H]3COCC[C@@H]3NS(C)(=O)=O)cc2)cs1 (racemic) [Example 263, N-[(3RS,4SR)-3-{[4-(2-methyl-1,3-thiazol-4-yl)phenoxy]methyl}tetrahydro-2H-pyran-4-yl]methanesulfonamide]
19 | 79% | CN(C)S(=O)(=O)N[C@H]1CCOC[C@@H]1COc1ccc(-n2cc(Cl)cn2)cc1 (racemic) [Example 279, N′-[(3RS,4SR)-3-{[4-(4-chloro-1H-pyrazol-1-yl)phenoxy]methyl}tetrahydro-2H-pyran-4-yl]-N,N-dimethylsulfamide]
20 | 78% | CS(=O)(=O)N[C@H]1CCOC[C@@H]1COc1ccc(-n2cc(C(F)(F)F)cn2)cc1 [Example 265, N-[(3R,4S)-3-({4-[4-(trifluoromethyl)-1H-pyrazol-1-yl]phenoxy}methyl)tetrahydro-2H-pyran-4-yl]methanesulfonamide]
21 | 94% | CCS(=O)(=O)N[C@H]1CCCO[C@@H]1COc1ccc(-c2ncc(F)cn2)cc1 [Example 399, 1,5-anhydro-2,3,4-trideoxy-4-[(ethylsulfonyl)amino]-6-O-[4-(5-fluoropyrimidin-2-yl)phenyl]-D-erythro-hexitol]
22 | 92% | CCS(=O)(=O)N[C@H]1CCOC[C@@H]1COc1ccc(-n2cc(C)cn2)cc1 (relative stereo) [Example 134, trans-N-[3-{[4-(4-methyl-1H-pyrazol-1-yl)phenoxy]methyl}tetrahydro-2H-pyran-4-yl]ethanesulfonamide]
23 | 96% | CS(=O)(=O)N[C@H]1CCOC[C@@H]1COc1ccc(-n2cccn2)c(F)c1F [Example 425, N-[(3R,4S)-3-{[2,3-difluoro-4-(1H-pyrazol-1-yl)phenoxy]methyl}tetrahydro-2H-pyran-4-yl]methanesulfonamide hydrochloride]
24 | 86% | CCS(=O)(=O)N[C@H]1CCCC[C@@H]1COc1ccc(C2COC2)cc1 (relative stereo) [Example 43, trans-N-{2-[(4-oxetan-3-ylphenoxy)methyl]cyclohexyl}ethanesulfonamide]
